In patent publication US7700277B2, “Use of polymorphisms in human OATP-C associated with an effect on statin pharmacokinetics in humans in statin therapy” (AstraZeneca AB, priority 2003, dated 2010):
Residue numbers refer to the chain shown, from its start.

Key:
[1] = target: T1, OATP-C (Homo sapiens, UniProt Q9Y6L6); conditions: literature reports (Brown 2001, in vitro; Hsiang 1999); cited from earlier work
T1 sequence (Q9Y6L6 1-691): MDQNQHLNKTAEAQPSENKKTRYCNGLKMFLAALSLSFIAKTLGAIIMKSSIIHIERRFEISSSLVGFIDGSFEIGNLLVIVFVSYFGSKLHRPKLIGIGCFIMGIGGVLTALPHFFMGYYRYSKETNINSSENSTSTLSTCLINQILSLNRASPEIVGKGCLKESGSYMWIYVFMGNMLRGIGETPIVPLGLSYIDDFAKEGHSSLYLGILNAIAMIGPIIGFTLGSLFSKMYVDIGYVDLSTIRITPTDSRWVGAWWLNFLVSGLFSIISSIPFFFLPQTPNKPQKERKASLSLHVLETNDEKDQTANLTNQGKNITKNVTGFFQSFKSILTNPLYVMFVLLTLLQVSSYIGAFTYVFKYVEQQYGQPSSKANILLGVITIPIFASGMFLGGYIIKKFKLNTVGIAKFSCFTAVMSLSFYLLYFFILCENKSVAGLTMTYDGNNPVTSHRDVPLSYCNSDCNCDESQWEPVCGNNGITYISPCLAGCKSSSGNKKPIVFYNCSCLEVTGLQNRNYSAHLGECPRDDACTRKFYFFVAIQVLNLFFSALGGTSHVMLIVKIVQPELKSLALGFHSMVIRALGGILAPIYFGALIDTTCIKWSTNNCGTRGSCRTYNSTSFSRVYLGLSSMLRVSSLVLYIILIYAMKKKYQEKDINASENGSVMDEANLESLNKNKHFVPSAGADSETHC

[2] = target: T2, OATP-C (Homo sapiens, UniProt Q9Y6L6, N130D/V174A); conditions: Japanese healthy volunteers; Nishizato 2003; cited from earlier work
T2 construct: host or cells: human volunteers (in vivo)
T2 sequence (Q9Y6L6 1-691 N130D/V174A): T1 sequence (Q9Y6L6 1-691) with N130D, V174A

[3] = tested on: OATP-C; conditions: cohort of healthy volunteers; Niemi 2004; cited from earlier work
[4] = tested on: OATP-C; assay: Dose-normalised plasma rosuvastatin concentrations by OATP-C genotype/haplotype in patients treated for 6 weeks; format: in vivo, human
From the text: In brief, the OATP-C gene was sequenced in 79 human clinical trial subjects. 52 of these patients had received rosuvastatin for at least 6 weeks for dislipidaemic disease and had plasma PK measurements taken after 6 weeks of treatment.
The promoter, exons and 3′ untranslated regions of OATP-C were fully sequenced by DNA terminator sequencing in DNA collected from 79 subjects in clinical trials. Sequencing traces were used to record the genotypes for known (i.e. available in the literature or SNP databases) SNPs in OATP-C. Some novel SNPs were found in the promoter and 3′UTR region of OATP-C.
Mean dose-normalised plasma rosuvastatin concentrations were determined for the genotypes for each polymorphic variant in the OATP-C gene. OATP-C genotype data for 3 SNPs, namely amino acid position 130 Asparagine→Aspartic acid (Asn130Asp), 155 Proline→Threonine (Pro 155Thr) and 174 Valine→Alanine (Val174Ala), was utilised to determine the haplotype pair for each subject. Mean dose-normalised plasma rosuvastatin concentrations were determined for the subjects grouped by haplotype pair.
All consenting subjects treated with rosuvastatin (n=271), from the 2 clinical trials including the original 52 patients, were subsequently genotyped, using TaqMan™, for OATP-C variants. Data for SNPs causing the N130D, P155T and V174A variants were utilised to assign OATPC haplotype pairs to each subject, as previously described.

CC[C@H](C)C(=O)O[C@H]1C[C@H](O)C=C2C=C[C@H](C)[C@H](CC[C@@H](O)C[C@@H](O)CC(=O)O)[C@H]21 [pravastatin]
substrate / transport by OATP-C [1]: actively transported | effect of OATPC*15 allele (N130D and V174A) on pharmacokinetics [2]: had an effect | correlation between PK and a haplotype containing a promoter SNP [3]: significant correlation

CC(C)c1nc(N(C)S(C)(=O)=O)nc(-c2ccc(F)cc2)c1/C=C/[C@@H](O)C[C@@H](O)CC(=O)O [rosuvastatin]
dose-normalised plasma rosuvastatin values, 174Ala variant vs wild type ([4]; FIG. 1, 52 subjects, Val174Ala heterozygote vs wild-type homozygote, after 6 weeks of treatment): higher plasma concentrations | dose-normalised plasma rosuvastatin values, OATP-C*15 haplotype vs other haplotypes ([4]; FIG. 2, haplotype pairs, after 6 weeks of treatment): higher plasma concentrations | mean plasma rosuvastatin levels (dose normalised), Val174Ala heterozygous vs Val/Val ([4]; FIG. 3, patients treated 6 weeks with different doses, most evident at higher doses): higher | mean plasma rosuvastatin concentrations, az0005537 (-118A>C) A/C heterozygous vs A/A ([4]; FIG. 4, two independent phase III studies): trend for an increase | mean plasma rosuvastatin concentrations, 174A variant with az0005537 C allele vs az0005537 A allele ([4]; FIG. 5, combined 2 phase III studies, V174A heterozygotes stratified by promoter genotype): tendency for higher mean plasma rosuvastatin concentrations | effect of OATP-C variants N130D and P155T on pharmacokinetic disposition ([4]; patients, dose-normalised plasma levels): do not appear to affect | substrate / transport by OATP-C [1]: substrate for OATP-C
